According to US8663643B2, “Combinations of an anti-HER2 antibody-drug conjugate and chemotherapeutic agents, and methods of use” (Genentech, Inc., priority 2008, dated 2014):
Several values for one entry are separate records, joined by “and”; a condition that tells them apart may be missing. Equal values may be shown once.

Key:
[1] = test system: MMTV-HER2 Fo5 transgenic mammary tumor; test: MMTV-HER2 Fo5 transgenic mammary tumor in CRL nu/nu mice; format: in vivo; conditions: FIG. 34; T-DM1 10 mg/kg iv q3wk; 5-FU 100 mg/kg po qwk×2; combination T-DM1 5 mg/kg + 5-FU 100 mg/kg; 42 day time point
Description: B20-4.1 was dosed on days 0, 3, 7, 10, 14, 17, 21 and 24 (2×/wk×4 for 8 total).
[…] Gemcitabine was dosed on days 0, 3, 6 and 9 (q3d×4).
The efficacy of the combinations of the invention may be measured in vivo by implanting allografts or xenografts of cancer cells in rodents and treating the tumors with the combinations. Variable results are to be expected depending on the cell line, the presence or absence of certain mutations in the tumor cells, the sequence of administration of trastuzumab-MCC-DM1 and chemotherapeutic agent, dosing regimen, and other factors. Subject mice were treated with drug(s) or control (Vehicle) and monitored over several weeks or more to measure the time to tumor doubling, log cell kill, and tumor inhibition (Example 3). FIGS. 10-17 and 34-37 show the efficacy of trastuzumab-MCC-DM1 in combinations with chemotherapeutic agents by xenograft tumor inhibition in mice.
(§1) Animals suitable for transgenic experiments can be obtained from standard commercial sources. Groups of female CB-17 SCID beige mice (Charles River Laboratory) were implanted with 3 million KPL-4 (Her2 overexpressing) breast cancer cells with matrigel in the mammary fat pad. Groups of female athymic nude mice (Charles River Laboratory or Harlan) were implanted with 2×2 mm3 fragments of MMTV-Her2 Fo5 transgenic breast tumors in the mammary fat pad. Mouse xenografts were dosed at day 0 with drug, drug combination, or vehicle according to the schedule specified for each tumor model. 5-FU, gemcitabine, carboplatin and B20-4.1 were administered intraperitoneal, pertuzumab was given either intravenously or intraperitoneal as indicated, trastuzumab-MCC-DM1 and docetaxel were administered intravenously, lapatinib, GDC-0941 and ABT-869 were given periorally by gavage. Tumor sizes were recorded twice weekly over the course of the study. Mouse body weights were also recorded twice weekly, and the mice were observed regularly. Tumor volume was measured in two dimensions (length and width) using Ultra Cal IV calipers (Model 54-10-111; Fred V. Fowler Co., Inc.; Newton, Mass.) and analyzed using Excel v.11.2 (Microsoft Corporation; Redmond, Wash.). Tumor inhibition graphs were plotted using KaleidaGraph, Version 3.6 (Synergy Software; Reading, Pa.). The tumor volume was calculated with formula: Tumor size (mm^3)=[…]
Tumor incidence (TI) was determined based on the number of measurable tumors remaining in each group at the end of the study. […] Data were analyzed and p-values were determined using the Dunnett's t-test with JMP statistical software, version 5.1.2 (SAS Institute; Cary, N.C.). Individual tumor volumes at end of study and mean tumor volume±SEM values were calculated using JMP statistical software, version 5.1.2. […]

[2] = test system: MMTV-Her2 Fo5 transgenic mammary tumor; test: MMTV-Her2 Fo5 transgenic mammary tumor in Harlan athymic nude mice; format: in vivo; conditions: for single agent efficacy vs vehicle: FIG. 14, lapatinib 101 mg/kg po bid×21, pertuzumab 40 mg/kg iv qwk×4, B20-4.1 5 mg/kg ip 2×/wk×4, T-DM1 15 mg/kg iv q3wk; for efficacy vs vehicle by both time to tumor doubling and time to tumor endpoint: ABT-869 15 mg/kg, T-DM1 either 7.5 or 15 mg/kg
Description: (§2) The efficacy of the combinations of the invention may be measured in vivo by implanting allografts or xenografts of cancer cells in rodents and treating the tumors with the combinations.
The time to tumor doubling was measured by Kaplan-Meier statistical analysis as 2× Vo. Time to tumor doubling and survival analysis were quantified by Log-rank-p values. Time to progression is measured as the elapsed time for tumor volume to reach 1000 mm^3, or the survival time if 1000 mm^3 tumor volume is not reached.
as §1, with “5-FU, gemcitabine, carboplatin and B20-4.1 were administered intraperitoneal, pertuzumab was given either intravenously or intraperitoneal as indicated, trastuzumab-MCC-DM1 and docetaxel were administered intravenously, lapatinib, GDC-0941 and ABT-869 were given periorally by gavage.” left out, “Tumor volume was measured in two dimensions (length and width) using Ultra Cal IV calipers (Model 54-10-111; Fred V. Fowler Co., Inc.; Newton, Mass.) and analyzed using Excel v.11.2 (Microsoft Corporation; Redmond, Wash.).” left out
(§3) Tumor incidence (TI) was determined based on the number of measurable tumors remaining in each group at the end of the study. A partial response (PR) was defined as more than 50% but less than 100% reduction in tumor volume, compared with the starting tumor volume, observed for three consecutive measurements. A complete response (CR) was defined as a 100% reduction in tumor volume, compared with the initial tumor volume, observed for three consecutive measurements. Data were analyzed and p-values were determined using the Dunnett's t-test with JMP statistical software, version 5.1.2 (SAS Institute; Cary, N.C.). Individual tumor volumes at end of study and mean tumor volume±SEM values were calculated using JMP statistical software, version 5.1.2. Body weight data were graphed based on the mean percentage of change from initial body weights±SEM.

KPL-4 tumors = test: KPL-4 tumor xenograft in SCID beige mice; format: in vivo; conditions: for complete responses (CR) / partial responses (PR): FIG. 10
Description: Pertuzumab was dosed on days 0, 7, and 14.
Pertuzumab was dosed on days 0, 7, 14, 21 (qwk×4. 5-FU was dosed on days 0, 7 and 14 (qwk×3). B20-4.1 was dosed on days 0, 3, 7, 10, 14, 17, 21 and 24 (2×/wk×8 total).
as §2
as §1, with “5-FU, gemcitabine, carboplatin and B20-4.1 were administered intraperitoneal, pertuzumab was given either intravenously or intraperitoneal as indicated, trastuzumab-MCC-DM1 and docetaxel were administered intravenously, lapatinib, GDC-0941 and ABT-869 were given periorally by gavage.” left out, “Tumor volume was measured in two dimensions (length and width) using Ultra Cal IV calipers (Model 54-10-111; Fred V. Fowler Co., Inc.; Newton, Mass.) and analyzed using Excel v.11.2 (Microsoft Corporation; Redmond, Wash.).” left out
as §3

[3] = test system: MDA-MB-361.1 mammary tumor; test: MDA-MB-361.1 mammary tumor xenograft in CRL nu/nu mice; format: in vivo
Description: as §2, §3

[4] = phase I study of GDC-0941 as a single agent; format: in vivo, human; conditions: 60 mg qd
[5] = test system: phospho-Akt, phospho-ERK, Rb, PRAS40, phospho-histone H3, cyclin B1, PARP, Bcl-XL, caspases 3 and 7; test: biochemical analyses of biomarkers; format: cell-based
[6] = pertuzumab 15 mg/kg, days 0, 7, 14
[7] = FIG. 36 (2), GDC-0941 25 mg/kg po qd×21
[8] = FIG. 36 (3), GDC-0941 50 mg/kg po qd×21
[9] = FIG. 36 (4), GDC-0941 100 mg/kg po qd×21
[10] = FIG. 37 (2), GNE-390 1.0 mg/kg po qd×21
[11] = FIG. 37 (3), GNE-390 2.5 mg/kg po qd×21
[12] = FIG. 36 (5), T-DM1 3 mg/kg iv q3wk
[13] = FIG. 36 (6), T-DM1 10 mg/kg iv q3wk
[14] = FIG. 16, T-DM1 15 mg/kg iv q3wk×2, 15 mg/kg
[15] = FIG. 17, T-DM1 15 mg/kg iv q3wk×2

O=c1[nH]cc(F)c(=O)[nH]1 [5-FU, 5-fluoro-1H-pyrimidine-2,4-dione, reference compound]
complete responses (CR) [1]: 0 | partial responses (PR) [1]: 0

CC(=O)O[C@@]12CO[C@@H]1C[C@H](O)[C@@]1(C)C(=O)[C@H](O)C3=C(C)[C@@H](OC(=O)[C@H](O)[C@@H](NC(=O)OC(C)(C)C)c4ccccc4)C[C@@](O)([C@@H](OC(=O)c4ccccc4)[C@H]21)C3(C)C [docetaxel, (2R,3S)—N-carboxy-3-phenylisoserine, N-tert-butyl ester, 13-ester with 5,20-epoxy-1,2,4,7,10,13-hexahydroxytax-11-en-9-one 4-acetate 2-benzoate, trihydrate, reference compound]
partial responses (PR) ([2]; FIG. 16, docetaxel 30 mg/kg iv qwk×3): 2

CS(=O)(=O)CCNCc1ccc(-c2ccc3ncnc(Nc4ccc(OCc5cccc(F)c5)c(Cl)c4)c3c2)o1 [lapatinib, N-(3-chloro-4-(3-fluorobenzyloxy)phenyl)-6-(5-((2-(methylsulfonyl)ethylamino)methyl)furan-2-yl)quinazolin-4-amine, reference compound]
single agent efficacy vs vehicle [2]: not different from vehicle

pertuzumab: recombinant, humanized monoclonal antibody that inhibits dimerization of HER2 (CAS Reg. No. 380610-27-5) [reference compound]
single agent efficacy vs vehicle [2]: not different from vehicle | complete responses (CR) (KPL-4 tumors; [6]): 0 | partial responses (PR) (KPL-4 tumors; [6]): 0

CS(=O)(=O)N1CCN(Cc2cc3nc(-c4cccc5[nH]ncc45)nc(N4CCOCC4)c3s2)CC1 [GDC-0941, 4-(2-(1H-indazol-4-yl)-6-((4-(methylsulfonyl)piperazin-1-yl)methyl)thieno[3,2-d]pyrimidin-4-yl)morpholine]
complete response (CR) [3, 7]: 0 | partial responses (PR) [3, 7]: 0 | complete response (CR) [3, 8]: 0 | partial responses (PR) [3, 8]: 1 | complete response (CR) [3, 9]: 0 | partial responses (PR) [3, 9]: 0 | safety of the dose as a single agent [4]: safe as a single agent without any dose limiting toxicities | phospho-Akt and phospho-ERK [5]: inhibition | phosphorylation of Rb and PRAS40 [5]: decreased phosphorylation

Cc1ccc(F)c(NC(=O)Nc2ccc(-c3cccc4[nH]nc(N)c34)cc2)c1 [ABT-869, 1-(4-(3-amino-1H-indazol-4-yl)phenyl)-3-(2-fluoro-5-methylphenyl)urea, reference compound]
efficacy vs vehicle by time to tumor doubling ([2]; FIG. 15, ABT-869 5 mg/kg po bid×21): not different than vehicle | efficacy vs vehicle by time to endpoint ([2]; FIG. 15, ABT-869 5 mg/kg po bid×21, p<0.01): significantly better than vehicle | efficacy vs vehicle by both time to tumor doubling and time to tumor endpoint ([2]; FIG. 15, p<0.01): significantly better than vehicle

Cc1c(CN2CCN(C(=O)[C@H](C)O)CC2)sc2c(N3CCOCC3)nc(-c3cnc(N)nc3)nc12 [GNE-390, (S)-1-(4-((2-(2-aminopyrimidin-5-yl)-7-methyl-4-morpholinothieno[3,2-d]pyrimidin-6-yl)methyl)piperazin-1-yl)-2-hydroxypropan-1-one]
complete response (CR) [3, 10]: 0 | partial responses (PR) [3, 10]: 0 | complete response (CR) [3, 11]: 0 | partial responses (PR) [3, 11]: 1

T-DM1
complete response (CR) [3, 12]: 1 | partial responses (PR) [3, 12]: 1 | complete response (CR) [3, 13]: 1 | partial responses (PR) [3, 13]: 8 | complete responses (CR) [1]: 0 | partial responses (PR) [1]: 1 | single agent efficacy vs vehicle [2]: efficacious as a single agent | efficacy vs vehicle by both time to tumor doubling and time to tumor endpoint ([2]; FIG. 15, p<0.01): significantly better than vehicle | objective responses ([2]; FIG. 16, T-DM1 7.5 mg/kg iv q3wk×2): no objective responses | complete response (CR) [2, 14]: 1 and 2 | partial responses (PR) [2, 14]: 6 and 5 | complete responses (CR) [2, 15]: 3 | partial responses (PR) [2, 15]: 6 | complete responses (CR) (KPL-4 tumors; T-DM1 0.3 mg/kg once on day 0): 0 | partial responses (PR) (KPL-4 tumors; T-DM1 0.3 mg/kg once on day 0): 0 | complete responses (CR) (KPL-4 tumors; T-DM1 1 mg/kg once on day 0): 0 | partial responses (PR) (KPL-4 tumors; T-DM1 1 mg/kg once on day 0): 1 | complete responses (CR) (KPL-4 tumors; T-DM1 3 mg/kg once on day 0): 0 | partial responses (PR) (KPL-4 tumors; T-DM1 3 mg/kg once on day 0): 7 | remaining tumors less than 50 mm^3 with no evidence of viable tumor cells (histology, end of study) (KPL-4 tumors; FIG. 11, T-DM1 5 mg/kg single iv, 5-FU 100 mg/kg qwk×3, pertuzumab 40 mg/kg qwk×4): 8 samples | apoptosis (23 kDa PARP-cleavage fragment, Bcl-XL, activation of caspases 3 and 7) [5]: resulted in apoptosis | phospho-Akt and phospho-ERK [5]: inhibition | levels of the mitotic markers phospho-histone H3 and cyclin B1 ([5]; after treatment): increased levels
